# Laboratory results taken from ChEMBL document CHEMBL1147013, “Three anti-tumor saponins from Albizia julibrissin” (2006).
# What was measured:
# Assay type in all cases: functional
# HeLa [1] = assay: Antitumor activity against human HeLa cell line by MTT assay
# Bel-7402 [2] = assay: Antitumor activity against human Bel7402 cell line by MTT assay
# PC-3 [3] = assay: Antitumor activity against human PC-3M-1E8 cell line by MTT assay
# Bel-7402 [4] = assay: Antitumor activity against human Bel7402 cell line by SRB assay
# MDA-MB-435 = assay: Antitumor activity against human MDA-MB-435 cell line by SRB assay
# HeLa [5] = assay: Antitumor activity against human HeLa cell line by SRB assay
# PC-3 [6] = assay: Antitumor activity against human PC-3M-1E8 cell line by SRB assay
# BGC-823 = assay: Antitumor activity against human BGC823 cell line by SRB assay
# HL-60 = assay: Antitumor activity against human HL60 cell line by SRB assay
Structure (SMILES),Inhibition (HeLa [1]),Inhibition (Bel-7402 [2]),Inhibition (PC-3 [3]),Inhibition (Bel-7402 [4]),Inhibition (MDA-MB-435),Inhibition (HeLa [5]),Inhibition (PC-3 [6]),Inhibition (BGC-823),Inhibition (HL-60)
COc1cccc2c1C(=O)c1c(O)c3c(c(O)c1C2=O)C[C@@](O)(C(=O)CO)C[C@@H]3O[C@H]1C[C@H](N)[C@H](O)[C@H](C)O1 [DOXORUBICIN],76.96%,51.26%,91.61%,–,–,–,–,–,–
C=C[C@@](C)(CC/C=C(\CO)C(=O)O[C@H]1C[C@]2(C(=O)O[C@@H]3O[C@H](CO)[C@@H](O)[C@H](O)[C@H]3O[C@@H]3O[C@@H](C)[C@H](O[C@@H]4O[C@@H](CO)[C@H](O)[C@H]4O)[C@@H](O[C@@H]4O[C@H](CO)[C@@H](O)[C@H](O)[C@H]4O)[C@H]3O)[C@H](O)C[C@]3(C)C(=CC[C@@H]4[C@@]5(C)CC[C@H](O[C@@H]6O[C@H](CO[C@@H]7O[C@H](C)[C@H](O)[C@H](O)[C@H]7O[C@@H]7OC[C@@H](O)[C@H](O)[C@H]7O)[C@@H](O)[C@H](O)[C@H]6NC(C)=O)C(C)(C)[C@@H]5CC[C@]43C)[C@@H]2CC1(C)C)O[C@@H]1O[C@H](C)[C@@H](O)[C@H](O)[C@H]1O [JULIBROSIDE J29],87.75%,50.37%,81.4%,67.14%,84.47%,94.9%,85.37%,52.9%,25.35%
C=CC(C)(CC/C=C(/CO)C(=O)O[C@H]1CC2(C(=O)O[C@@H]3O[C@H](CO)[C@@H](O)[C@H](O)[C@@H]3O[C@H]3O[C@H](C)[C@@H](O[C@H]4O[C@H](CO)[C@@H](O)[C@@H]4O)[C@H](O[C@H]4O[C@@H](CO)[C@H](O)[C@@H](O)[C@@H]4O)[C@@H]3O)C(CC1(C)C)C1=CCC3C4(C)CC[C@H](O[C@@H]5O[C@H](CO[C@H]6O[C@@H](C)[C@@H](O)[C@@H](O)[C@@H]6O[C@H]6OC[C@H](O)[C@@H](O)[C@@H]6O)[C@@H](O)[C@H](O)[C@H]5NC(C)=O)C(C)(C)C4CCC3(C)[C@]1(C)C[C@H]2O)O[C@H]1OC[C@H](O)[C@@H](O)[C@@H]1O (stereo not given in full) [JULIBROSIDE J30],92.19%,61.87%,75.96%,57.49%,75.68%,91.65%,84.98%,46.66%,25.59%
C=CC(C)(CC/C=C(/CO)C(=O)O[C@H]1CC2(C(=O)O[C@@H]3O[C@H](CO)[C@@H](O)[C@H](O)[C@@H]3O[C@H]3O[C@H](C)[C@@H](O[C@H]4O[C@H](CO)[C@@H](O)[C@@H]4O)[C@H](O[C@H]4O[C@@H](CO)[C@H](O)[C@@H](O)[C@@H]4O)[C@@H]3O)C(CC1(C)C)C1=CCC3C4(C)CC[C@H](O[C@@H]5O[C@H](CO[C@H]6O[C@@H](C)[C@@H](O)[C@@H](O)[C@@H]6O[C@H]6OC[C@H](O)[C@@H](O)[C@@H]6O)[C@@H](O)[C@H](O)[C@H]5OC5O[C@H](CO)[C@@H](O)[C@H](O)[C@H]5O)C(C)(C)C4CCC3(C)[C@]1(C)C[C@H]2O)O[C@H]1O[C@@H](C)[C@H](O)[C@@H](O)[C@@H]1O (stereo not given in full) [JULIBROSIDE J31],64.33%,44.34%,94.71%,46.61%,80.41%,83.48%,80.85%,15.16%,39.33%
